± gives the expanded uncertainty stated by the source.
Assays:
[1] = for mass density: 101.33 kPa, Buoyancy - hydrostatic balance; for mass density / surface tension liquid-gas: Liquid; for surface tension liquid-gas: Maximal bubble pressure; for Glass transition temperature: DTA
[2] = refractive index (Na D-line) (dimensionless); conditions: 101.33 kPa, Liquid, Standard Abbe refractometry

For `CC(O)C(=O)[O-].CCn1cc[n+](C)c1` [1-ethyl-3-methylimidazolium lactate], the mass density ([1]; 288.15 K) was 1192.9 ± 1.2 kg/m3, the surface tension liquid-gas ([1]; 288.15 K) was 49.5 ± 0.6 mN/m and the mass density ([1]; 293.15 K) was 1189.8 ± 1.1 kg/m3. The surface tension liquid-gas ([1]; 293.15 K) was 49.2 ± 0.6 mN/m, the mass density ([1]; 303.15 K) was 1183.4 ± 1.1 kg/m3 and the surface tension liquid-gas ([1]; 303.15 K) was 48.4 ± 0.6 mN/m. For the same molecule, the mass density ([1]; 308.15 K) was 1180.1 ± 1.1 kg/m3, the surface tension liquid-gas ([1]; 308.15 K) was 48 ± 0.6 mN/m and the mass density ([1]; 313.15 K) was 1176.4 ± 1.1 kg/m3. It also gave a surface tension liquid-gas ([1]; 313.15 K) of 47.7 ± 0.6 mN/m, a mass density ([1]; 318.15 K) of 1173.4 ± 1.1 kg/m3 and a surface tension liquid-gas ([1]; 318.15 K) of 47.4 ± 0.6 mN/m. For the same molecule, the mass density ([1]; 323.15 K) was 1170.4 ± 1.1 kg/m3, the surface tension liquid-gas ([1]; 323.15 K) was 47 ± 0.6 mN/m and the mass density ([1]; 328.15 K) was 1167.1 ± 1.1 kg/m3. The surface tension liquid-gas ([1]; 328.15 K) was 46.6 ± 0.6 mN/m, the mass density ([1]; 333.15 K) was 1163.6 ± 1.1 kg/m3 and the surface tension liquid-gas ([1]; 333.15 K) was 46.3 ± 0.6 mN/m. It also gave a Glass transition temperature [1] of -81.30 ± 2 °C, a refractive index ([2]; 288.15 K) of 1.5026 ± 0.0005 and a refractive index ([2]; 293.15 K) of 1.5014 ± 0.0005. The refractive index ([2]; 303.15 K) was 1.4987 ± 0.0005, the refractive index ([2]; 308.15 K) was 1.4977 ± 0.0005 and the refractive index ([2]; 313.15 K) was 1.4961 ± 0.0005. It also gave a refractive index ([2]; 318.15 K) of 1.495 ± 0.0005, a refractive index ([2]; 323.15 K) of 1.4936 ± 0.0005 and a refractive index ([2]; 328.15 K) of 1.4926 ± 0.0005. It also gave a refractive index ([2]; 333.15 K) of 1.4913 ± 0.0005.
In the case of `CC(O)C(=O)[O-].CCCCCn1cc[n+](C)c1` [1-pentyl-3-methylimidazolium lactate], the mass density ([1]; 288.15 K) is reported as 1112.6 ± 1 kg/m3, the surface tension liquid-gas ([1]; 288.15 K) is reported as 43.1 ± 0.5 mN/m and the mass density ([1]; 293.15 K) is reported as 1109 ± 1 kg/m3. The surface tension liquid-gas ([1]; 293.15 K) was 42.7 ± 0.5 mN/m, the mass density ([1]; 303.15 K) was 1102.7 ± 1 kg/m3 and the surface tension liquid-gas ([1]; 303.15 K) was 42 ± 0.5 mN/m. It also gave a mass density ([1]; 308.15 K) of 1099.4 ± 1 kg/m3, a surface tension liquid-gas ([1]; 308.15 K) of 41.5 ± 0.5 mN/m and a mass density ([1]; 313.15 K) of 1095.3 ± 1 kg/m3. The surface tension liquid-gas ([1]; 313.15 K) was 41.2 ± 0.5 mN/m, the mass density ([1]; 318.15 K) was 1092.9 ± 1 kg/m3 and the surface tension liquid-gas ([1]; 318.15 K) was 40.9 ± 0.5 mN/m. It also gave a mass density ([1]; 323.15 K) of 1089.9 ± 1 kg/m3, a surface tension liquid-gas ([1]; 323.15 K) of 40.5 ± 0.5 mN/m and a mass density ([1]; 328.15 K) of 1086.4 ± 1 kg/m3. It also gave a surface tension liquid-gas ([1]; 328.15 K) of 40.1 ± 0.5 mN/m, a mass density ([1]; 333.15 K) of 1083.3 ± 1 kg/m3 and a surface tension liquid-gas ([1]; 333.15 K) of 39.8 ± 0.5 mN/m. The Glass transition temperature [1] was -78.20 ± 2 °C, the refractive index ([2]; 288.15 K) was 1.494 ± 0.0005 and the refractive index ([2]; 293.15 K) was 1.4928 ± 0.0005. The refractive index ([2]; 303.15 K) was 1.4901 ± 0.0005, the refractive index ([2]; 308.15 K) was 1.4891 ± 0.0005 and the refractive index ([2]; 313.15 K) was 1.4875 ± 0.0005. It also gave a refractive index ([2]; 318.15 K) of 1.4864 ± 0.0005, a refractive index ([2]; 323.15 K) of 1.485 ± 0.0005 and a refractive index ([2]; 328.15 K) of 1.4841 ± 0.0005. It also gave a refractive index ([2]; 333.15 K) of 1.4827 ± 0.0005.

From the NIST ThermoML archive (doi:10.1016/j.jct.2013.07.008)
